The record followed here is patent US20090036473A1, “NOVEL QUINAZOLINONE DERIVATIVES AND THEIR MEDICAL USE” (priority 2006, published 2009).

The target of the assay is T1, human Kv72+3 channels (Homo sapiens, UniProt O43525+O43526).
T1 construct: expressed in transfected cells; host or cells: CHO K1 cells, stably expressing
Nature of the assay: patch-clamp set-up using CHO K1 cell lines stably expressing the human Kv72+3 channels. The format is cell-based. To be noted: at a concentration of 3 μM, CHO K1 cells stably expressing human Kv72+3 channels. Here is the method: For example, at a concentration of 3 μM, Compound A4 induces an increase in current amplitude in the order 190%, which is an indication of its potent Kv72+3 activating activity.

On to `CC(C)c1nc2ccccc2c(=O)n1NC(=O)[C@@H]1C[C@H]1c1ccccc1` (relative stereo) [Compound A4, (Trans)-2-Phenyl-cyclopropanecarboxylic acid (2-isopropyl-4-oxo-4H-quinazolin-3-yl)-amide], for which the “increase in current amplitude” value is around 190%.
